How the values were obtained:
Set-up in all cases: scale not given here
[1] = test system: IPOHE Morningglory, Ivyleaf; assay: Preemergence herbicidal evaluation, IPOHE; assay type: in vivo, Ipomoea hederacea, (L.) Jacq.; conditions: preemergence
How it was run: (§1)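 Visual ratings were taken four to five weeks after application. Before that, cups sown with seed in potting soil received a spray of compound dissolved in aqueous acetone, equivalent to about 0.013 to 0.800 kg/ha, and stood on greenhouse benches under conventional care.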

AMBEL Ragweed, Common = assay: Preemergence herbicidal evaluation, AMBEL; assay type: in vivo, Ambrosia artemisifolia, L.; conditions: preemergence
How it was run: as §1

CASOB Sicklepod [2] = assay: Preemergence herbicidal evaluation, CASOB; assay type: in vivo, Cassia obtusifolia, L.; conditions: preemergence
How it was run: as §1

ECHOG Barnyardgrass = assay: Postemergence herbicidal evaluation, ECHOG; assay type: in vivo, Echinochloa crus-galli, (L.) Beau; conditions: postemergence spray, rated about two-three weeks after treatment
How it was run: (§2)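 Ratings from greenhouse plants scored about two to three weeks after a foliar spray; data from multiple tests averaged. Seedlings about two weeks old received roughly 0.006–0.400 kg/ha active compound in 80/20 acetone/water with 1.0% methylated seed oil.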

CASOB Sicklepod [3] = assay: Postemergence herbicidal evaluation, CASOB; assay type: in vivo, Cassia obtusifolia, L.; conditions: postemergence spray, rated about two-three weeks after treatment
How it was run: as §2

Q: What does the source list for Cc1ccc(O)c(-n2nnc3cc(F)c(-n4c(=O)cc(C(F)(F)F)n(C)c4=O)cc32)c1 [Example 31, 3-[5-Fluoro-1-(2-Hydroxy-5-Methylphenyl)-1H-1,2,3-Benzotriazol-6-yl]-1-Methyl-6-(Trifluoromethyl)-2,4(1H,3H)-(Pyrimidinedione)]?
A: IPOHE herbicidal rating ([1]; rate 0.008 kg/ha): 0.0; IPOHE herbicidal rating ([1]; rate 0.016 kg/ha): 0.0; IPOHE herbicidal rating ([1]; rate 0.032 kg/ha): 0.0; IPOHE herbicidal rating ([1]; rate 0.062 kg/ha): 0.0; IPOHE herbicidal rating ([1]; rate 0.125 kg/ha): 0.0; AMBEL herbicidal rating (AMBEL Ragweed, Common; rate 0.008 kg/ha): 0.0; AMBEL herbicidal rating (AMBEL Ragweed, Common; rate 0.016 kg/ha): 0.0; AMBEL herbicidal rating (AMBEL Ragweed, Common; rate 0.032 kg/ha): 0.0; AMBEL herbicidal rating (AMBEL Ragweed, Common; rate 0.062 kg/ha): 0.0; AMBEL herbicidal rating (AMBEL Ragweed, Common; rate 0.125 kg/ha): 0.0; CASOB herbicidal rating (CASOB Sicklepod [2]; rate 0.008 kg/ha): 0.0; CASOB herbicidal rating (CASOB Sicklepod [2]; rate 0.016 kg/ha): 0.0; CASOB herbicidal rating (CASOB Sicklepod [2]; rate 0.032 kg/ha): 0.0; CASOB herbicidal rating (CASOB Sicklepod [2]; rate 0.062 kg/ha): 0.0; CASOB herbicidal rating (CASOB Sicklepod [2]; rate 0.125 kg/ha): 0.0; Postemergence herbicidal rating ECHCG (ECHOG Barnyardgrass; 0.008 kg/ha): 0.0; Postemergence herbicidal rating ECHCG (ECHOG Barnyardgrass; 0.016 kg/ha): 0.0; Postemergence herbicidal rating ECHCG (ECHOG Barnyardgrass; 0.032 kg/ha): 0.0; Postemergence herbicidal rating ECHCG (ECHOG Barnyardgrass; 0.062 kg/ha): 3.0; Postemergence herbicidal rating CASOB (CASOB Sicklepod [3]; 0.008 kg/ha): 0.0; Postemergence herbicidal rating CASOB (CASOB Sicklepod [3]; 0.016 kg/ha): 0.0; Postemergence herbicidal rating CASOB (CASOB Sicklepod [3]; 0.032 kg/ha): 0.0; Postemergence herbicidal rating CASOB (CASOB Sicklepod [3]; 0.062 kg/ha): 0.0

Reference: patent US20020111274A1, “1-alkyl-3-[1-(substituted phenyl) benzotriazol-6-yl] uracils” (BASF Aktiengesellschaft, priority 2000, published 2002)
